Measurements from US20070174925A1, “Treatment models and uses thereof” (priority 2003, published 2007).

How the values were obtained:
zebrafish = experiment: DMSO tolerance of zebrafish; type: in vivo; conditions: final concentration in fish water
Experimental: A further advantage of zebrafish is the fact they live in water. This makes administration of candidate chemicals easy. Moreover, the inventors have discovered that zebrafish are also DMSO tolerant. This is important as many drugs are dissolved in DMSO. The inventors have established that zebrafish can tolerate 1% DMSO. Thus, a candidate drug or other test substance may be dissolved in DMSO and administered to zebrafish by adding to the fish water to give a final concentration of DMSO of at least up to 1%. This is employed in various preferred aspects and embodiments of the present invention.

larval zebrafish = experiment: temperature gradient assay of thermal nociception; type: in vivo; conditions: for location of fish in temperature gradient versus control fish: fish less than 10 days old, opiate 1 ug/ml or cannabinoid 5 ug/ml in water for 30 minutes at 28° C. before testing, t=10 mins
Experimental: 1. The ambient environment was prepared through the use of an air handling system to maintain a constant air temperature below 24° C., enabling maintenance of a stable water gradient.
2. A shallow tray was taken of dimensions 2 cm deep, 30 cm long and 20 cm wide. This was filled with oxygenated water from the aquarium, the composition of which is suitable sustain zebrafish. This water was cooled to less than the lowest temperature desired in the gradient.
3. The tray was placed on top of two heating plates: a hot plate, capable of heating to high temperatures, and a hot block. The heights of the blocks were adjusted so that when the tray is placed on top of them the tray lies flat (FIG. 1). It was important to ensure the heating surfaces were symmetrically located under the long axis of the tray to ensure equal heating of both longitudinal halves of the tray.
4. A transparent 30 cm ruler was placed on top of the tray and the boundaries of 4 quadrants marked on it: 0-7.5 cm, 7.5-15 cm, 15-22.5 cm and 22.5-30 cm (FIGS. 2 and 8). These serve to split the gradient up into areas as a means of summarizing temperature choice.
5. Aluminum foil was used to make channels for the fish to swim in. These were water tight and closed at one end and open at the other. […] The open end is necessary so that as water evaporates from the hot end the channels don't dry up. They were then placed in the water with the closed end at the cool end. They were then filled with water. The channels were in the middle of the tray, i.e. not closer to one long side of the tray than the other.
6. The hotplate and hotblock were turned on to achieve a temperature of about 40° C. maintained at the hot end, with the unheated end reaching only 24° C. To measure the temperature at each quadrant boundary, thermometers were placed near the channels at each boundary.
7. When a stable gradient was achieved, fish were taken directly from the fish room (28° C.). As much of the liquid around them as possible was removed. […]
9. At 2, 5 and 10 minutes, the number of fish in each quadrant was counted. […]

[1] = test system: fish sensitized with DNCB; experiment: DNCB-induced hyperalgesia and its rescue, temperature gradient assay; type: in vivo, zebrafish; conditions: same DNCB-sensitized fish treated with an opiate and retested; t=5 mins

Structure (SMILES)	concentration tolerated by zebrafish (zebrafish)	location of fish in temperature gradient versus control fish (larval zebrafish)	location of three week old fish in temperature gradient versus untreated fish (larval zebrafish; three week old fish treated with an opiate)	distribution in gradient of DNCB-sensitized fish after treatment and retest (rescue of hyperalgesia) [1]
C[S+](C)[O-] [DMSO]	1%	–	–	–
CCCCC/C=C\C/C=C\C/C=C\C/C=C\CCCC(=O)NCCO [endogenous cannabinoid, Anandamide]	–	less aversion to higher temperatures	–	–
COC(=O)N1CCN(C(=O)Cc2ccc(Cl)c(Cl)c2)C(CN2CCCC2)C1.O=C(O)/C=C/C(=O)O (centres unmarked) [opiate, GR 89696 Fumerate]	–	more often found in water of a higher temperature than control fish	locate to regions of a higher temperature than untreated fish	lose this sensitivity, and their distribution becomes randomized in the gradient
